Measured values taken from ChEMBL document CHEMBL4480419, “Design and molecular modeling of novel P38α MAPK inhibitors targeting breast cancer, synthesized from oxygen heterocyclic natural compounds” (Bioorg Med Chem, 2019).
Active and inactive are the calls of the source. The rule behind the calls is not given here.

Key:
MCF7 [1] = assay: Antiproliferative activity against human MCF7 cells after 72 hrs by MTT assay; format: functional, cell-based; details: MCF7, 72 h
MDA-MB-231 = assay: Antiproliferative activity against human MDA231 cells after 72 hrs by MTT assay; format: functional, cell-based; details: MDA-MB-231, 72 h
MAP kinase p38 = MAP kinase p38 (Homo sapiens, UniProt O15264+Q15759+Q16539+P53778); assay: Inhibition of p38alpha MAPK (unknown origin) using ATF-2 as substrate after 1 hr by ELISA; format: protein assay
MCF7 [2] = assay: Induction of apoptosis in human MCF7 cells assessed as early apoptotic cells after 48 hrs by Annexin V-FITC/propidium iodide staining-based flow cytometric analysis (reference value: 0.85%); format: functional
MCF7 [3] = assay: Induction of apoptosis in human MCF7 cells assessed as late apoptotic cells after 48 hrs by Annexin V-FITC/propidium iodide staining-based flow cytometric analysis (reference value: 0.52%); format: functional
MCF7 [4] = assay: Induction of apoptosis in human MCF7 cells assessed as necrotic cells after 48 hrs by Annexin V-FITC/propidium iodide staining-based flow cytometric analysis (reference value: 0.34%); format: functional
MCF7 [5] = assay: Cell cycle arrest in human MCF7 cells assessed as accumulation of cells at preG phase after 48 hrs by propidium iodide staining-based flow cytometric analysis (reference value: 1.71%); format: functional
MCF7 [6] = assay: Cell cycle arrest in human MCF7 cells assessed as accumulation of cells at G1 phase after 48 hrs by propidium iodide staining-based flow cytometric analysis (reference value: 53.94%); format: functional
MCF7 [7] = assay: Cell cycle arrest in human MCF7 cells assessed as accumulation of cells at G2/M phase after 48 hrs by propidium iodide staining-based flow cytometric analysis (reference value: 6.68%); format: functional
MCF7 [8] = assay: Cell cycle arrest in human MCF7 cells assessed as accumulation of cells at S phase after 48 hrs by propidium iodide staining-based flow cytometric analysis (reference value: 39.38%); format: functional
MCF7 [9] = assay: Induction of apoptosis in human MCF7 cells assessed as increase in caspase-7 activity by ELISA; format: functional, cell-based
MCF7 [10] = assay: Induction of apoptosis in human MCF7 cells assessed as increase in caspase-7 mRNA expression after 48 hrs by RT-PCR analysis; format: functional, cell-based

| SMILES | IC50 (MCF7 [1]) | IC50 (MDA-MB-231) | other results |
| --- | --- | --- | --- |
| COc1c(-c2cc(-c3ccc(C)o3)c(C#N)c(N)n2)c(O)c(Br)c2occc12 | 1.19 µM | 2.65 µM | IC50 (MAP kinase p38): 0.04 µM; Activity (MCF7 [2]): 5.36%; Activity (MCF7 [3]): 9.2%; Activity (MCF7 [4]): 2.13%; Activity (MCF7 [5]): 16.69%; Activity (MCF7 [6]): 41.56%; Activity (MCF7 [7]): 23.63%; Activity (MCF7 [8]): 34.81%; Activity (MCF7 [9]): Active; Activity (MCF7 [10]): Active |
| COc1c(C(=O)/C=C/c2ccc(C)o2)c(O)c(CN2CCCCC2)c2occc12 | > 100 µM | > 100 µM | – |
| Cc1cc(=O)c2c(OCC(=O)NNC(=S)Nc3ccccc3)c3ccoc3cc2o1 | 2.44 µM | > 100 µM | – |
| COc1c(C(=O)/C=C/c2ccc(C)o2)c(O)c(Br)c2occc12 | 1.36 µM | 2.1 µM | IC50 (MAP kinase p38): 0.041 µM |
| Cc1cc(C)n(C(=O)COc2c3ccoc3cc3oc(C)cc(=O)c23)n1 | 2.5 µM | > 100 µM | – |
| COc1c(-c2cc(-c3ccc(C)o3)[nH]c(=S)n2)c(O)c(CN2CCN(C)CC2)c2occc12 | 5.81 µM | > 100 µM | – |
| COc1c(C(=O)/C=C/c2ccc(C)o2)c(O)c(CN2CCOCC2)c2occc12 | > 100 µM | > 100 µM | – |
| Cc1cc(=O)c2c(OCc3nnc(SCCN4CCOCC4)o3)c3ccoc3cc2o1 | 3.82 µM | 8.74 µM | – |
| Cc1cc(=O)c2c(OCc3nnc(SCCN4CCOCC4)s3)c3ccoc3cc2o1 | 2.78 µM | > 100 µM | – |
| COc1c(-c2cc(-c3ccc(C)o3)[nH]c(=S)n2)c(O)c(CN2CCCCC2)c2occc12 | > 100 µM | > 100 µM | – |
| Cc1cc(=O)c2c(OCc3nnc(S)s3)c3ccoc3cc2o1 | 1.65 µM | 7.07 µM | – |
| COc1c(-c2cc(-c3ccc(C)o3)[nH]c(=S)n2)c(O)c(CN2CCOCC2)c2occc12 | 7.14 µM | > 100 µM | – |
| CS(=O)(=O)CCNCc1ccc(-c2ccc3ncnc(Nc4ccc(OCc5cccc(F)c5)c(Cl)c4)c3c2)o1 [LAPATINIB] | 4.69 µM | 4.69 µM | – |
| COc1c(-c2cc(-c3ccc(C)o3)[nH]c(=O)n2)c(O)c(Br)c2occc12 | 1.94 µM | 1.23 µM | – |
| Cc1cc(=O)c2c(OCc3nnc(S)o3)c3ccoc3cc2o1 | 13.2 µM | 12.4 µM | – |
| COc1c(-c2cc(-c3ccc(C)o3)[nH]c(=S)n2)c(O)c(Br)c2occc12 | 1.51 µM | 2 µM | – |
| COc1c(C(=O)/C=C/c2ccc(C)o2)c(O)c(CN2CCN(C)CC2)c2occc12 | 4.86 µM | > 100 µM | – |
